Measurements: patent EP0837071A1, “Tripeptide antithrombotic agents” (ELI LILLY AND COMPANY, priority 1990, dated 1992)
pKd: −log10 of the molar value. Where “and” joins values, the source holds several entries; their conditions need not be identical. Identical values can stand only once. Counter-ions that a name gives are not always drawn. Like-named read-outs stand apart in the source and are kept apart here. Square brackets hold non-standard residues; d marks the D form. Peptide text beside a SMILES is read from it. * marks the point of attachment. dNMePhg = CN[C@@H](C(=O)O)c1ccccc1; dHpg = N[C@@H](C(=O)O)c1ccc(O)cc1; dChg = N[C@@H](C(=O)O)C1CCCCC1; dPhg = N[C@@H](C(=O)O)c1ccccc1; Boc = CC(C)(C)OC(=O)*

Tests used:
thrombin = molecular target: T1, thrombin (Bos taurus, UniProt P00735); test: Inhibition of thrombin amidase activity (chromogenic substrate N-benzoyl-D-phenylalanyl-L-valyl-L-arginyl-p-nitroanilide); assay type: biochemical; settings: for Kd: read-out: Thrombin Amidase Kass (converted)
T1 construct: purchased
Protocol: The data in the table were obtained in an assay in which thrombin hydrolyzes the chromogenic substrate, N-benzoyl-D-phenylalanyl-L-valyl-L-arginyl-p-nitroanilide.
The assay was carried out in 50 µl buffer (0.03M Tris, 0.15M NaCl, pH 7.4) with 25 µl of thrombin solution (0.21 mg/ml of thrombostat powder in 0.06 M Tris, 0.3M NaCl, pH 7.4) and 150 µl of an aqueous solution of the chromogenic substrate at a concentration of 0.25 mg/ml. Solutions of test compound (25 µl) at various concentrations were added. […] Standard curves were constructed by plotting free thrombin concentration against hydrolysis rate. […] The amount of free inhibitor in each assay was calculated by subtracting the number of moles of bound thrombin from the number of moles of added inhibitor (test compound).
The Kass value is the hypothetical equilibrium constant for the reaction between thrombin and the test compouhnd (I). Thrombin + I ⇄ Thrombin - I [formula] Kass =([Thrombin I])/([ (Thrombin) x (I) ]) [formula]
Kass was calculated for a range of concentrations of test compounds and the mean value is reported in units of liter per mole.

plasma [1] = test: Plasma coagulation assay: prothrombin time; assay type: biochemical; settings: thromboplastin (Dade)
Protocol: (§1) The numerical values in the table are the concentrations of the test compounds (ng/ml) required to prolong coagulation by 2-fold in the three tests. The thrombin time evaluation was carried out in plasma and separately determined in a buffer system at […].
(§2) The data presented in Table 2 were obtained using a CoaScreener instrument from Tecan, Inc. in the assay protocols listed below. Prothrombin Time: 50 µl plasma 50 µl saline 7 µl test solution 50 µl thromboplastin (Dade) Thrombin Time: 50 µl plasma 50 µl saline 7 µl test compound 50 µl bovine thrombin (2 NIH unit/ml) In the Thrombin Time determined in pH 7.4 buffer fibrinogen was used instead of plasma. APTT: 50 µl plasma 50 µl Actin (Dade) 7 µl test solution 50 µl CaCl2 (0.01M).

plasma [2] = test: Plasma coagulation assay: activated partial thromboplastin time (APTT); assay type: biochemical; settings: Actin (Dade), CaCl2
Protocol: as §1, §2

bovine thrombin [3] = molecular target: T2, bovine thrombin (Bos taurus, UniProt P00735); test: Plasma coagulation assay: thrombin time; assay type: biochemical; settings: for EC (2-fold clotting time): read-out: Thrombin Time: concentration of test compounds required to prolong coagulation by 2-fold
T2 construct: 50 µl bovine thrombin (2 NIH unit/ml)
Protocol: as §1, §2

bovine thrombin [4] = molecular target: T2, bovine thrombin; test: Thrombin time in buffer (fibrinogen instead of plasma); assay type: biochemical
Protocol: as §1, §2

[5] = tested on: Arterial Thrombosis in the Rat; test: FeCl3-induced arterial thrombosis in the carotid artery of the rat; assay type: in vivo; settings: infusion from 15 min before to 60 min after FeCl3 application, NA = Not active at 4 mg/kg/h or at 7 mg/kg/h, the highest doses tested
Protocol: The antithrombotic activity of representative compounds of the invention was determined in in vivo tests carried out in the rat. The test employed induced arterial thrombosis in the carotid artery of the rat and measured the infusion dose of test compound required to maintain blood flow for fifty minutes past the time of occlusion. The test was performed as follows.
Arterial thrombosis was induced in the rat by injury of the carotid artery. Topical application of a ferric chloride solution was used to injure the vessel. […] Animals were laid on a water blanket in which the circulated water was maintained at 37° C. The carotid artery was approached through a midline cervical incision. Careful blunt dissection was used to expose and isolate the vessel from the carotid sheath. A silk suture was pulled underneath the artery to lift the vessel to provide clearance to insert a thermocouple underneath it. […] The discs were cut to equal size using sharpened stainless steel tubing (3 mm i.d.) chucked in a drill press. A saturated disc was placed on each carotid artery above the thermocouple. The time between FeCl3 application and the time at which temperature decreased abruptly was recorded as time to occlusion (TTO) of the vessel. The average time required for both vessels to occlude was used to represent TTO for each animal.
Test compounds were dissolved in isotonic saline. A syringe pump was used to infuse drug solutions starting 15 min before FeCl3 application and continuing for 60 min after FeCl3 application. Dose-response curves were plotted to determine the relationship between the log10 of the infused doses and the TTO of the injured arteries.
The association between vessel occlusion and the abrupt temperature decrease was established by simultaneously recording the temperature and blood flow on the same recorder. A pulsed Doppler flow probe was placed around the carotid artery proximal to the thermocouple. […] Results were reported as percent change from initial baseline values (6 min before occlusion). The time at which vessel temperature decreased rapidly was arbitrarily established as zero and pre- and post-occlusion temperature and flow values were referenced from that point.

[6] = Thrombin Amidase Kass, apparent equilibrium (association) constant, mean over a range of concentrations, pH 7.4, acetate salts unless indicated otherwise
[7] = apparent equilibrium (association) constant, mean over a range of concentrations, pH 7.4, acetate salts unless indicated otherwise
[8] = plasma, bovine thrombin (2 NIH unit/ml)
[9] = buffer pH 7.5, fibrinogen instead of plasma, read-out: Buffer (pH 7.5) Thrombin Time: concentration of test compounds required to prolong coagulation by 2-fold

pKd (thrombin; [6]) | EC (2-fold clotting time) (bovine thrombin [3]; [8]) | Compound | Prothrombin Time: concentration of test compounds required to prolong coagulation by 2-fold (plasma [1]) | APTT: concentration of test compounds required to prolong coagulation by 2-fold (plasma [2]) | other results
7.94 |  | N=C(N)NCCC[C@@H](C=O)NC(=O)[C@@H]1CCCN1C(=O)C1NCCc2ccccc21 (mixture of isomers) |  |  | 
 | 0.091 µg/mL | N=C(N)NCCC[C@@H](C=O)NC(=O)[C@@H]1CCCN1C(=O)[C@H](N)c1ccccc1 [D-Phenylglycyl, D-Phg-L-Pro-L-Arg-H] (H-[dPhg]-Pro-Arg-aldehyde) | 91 ng/mL | 1139 ng/mL | 
7.88 |  | NC(N)=NCCC[C@@H](C=O)NC(=O)[C@@H]1CCCN1C(=O)[C@H](N)c1ccccc1 [D-Phenylglycyl, D-Phg-L-Pro-L-Arg-H] (H-[dPhg]-Pro-Arg-aldehyde) |  |  | 
7.19 | 0.16 µg/mL | COc1ccc([C@@H](NC(C)=O)C(=O)N2CCC[C@H]2C(=O)N[C@H](C=O)CCCNC(=N)N)cc1 [N-Acetyl-D-(4-methoxy)phenylglycyl] | 900 ng/mL | 2600 ng/mL | 
 | 0.182 µg/mL | CC(C)(C)OC(=O)N[C@@H](C(=O)N1CCC[C@H]1C(=O)N[C@H](C=O)CCCNC(=N)N)c1ccc(O)cc1 [N-Boc-D-(4-hydroxy)phenylglycyl, N-Boc-D-(4-hydroxyphenylglycyl)-Pro-Arg-H diacetate] (Boc-[dHpg]-Pro-Arg-aldehyde) | 1636 ng/mL | 1091 ng/mL | 
6.72 | 0.3 µg/mL | CN(C(=O)OC(C)(C)C)[C@@H](C(=O)N1CCC[C@H]1C(=O)N[C@H](C=O)CCCNC(=N)N)c1ccccc1 [N-Boc-N-methyl-D-phenylglcyl] (Boc-[dNMePhg]-Pro-Arg-aldehyde) | 300 ng/mL | 4545 ng/mL | 
7.96 | 0.092 µg/mL | CN[C@@H](C(=O)N1CCC[C@H]1C(=O)N[C@H](C=O)CCCNC(=N)N)c1ccccc1 [N-Methyl-D-phenylglycyl, N-methyl-D-phenylglycyl-L-prolyl-L-arginine aldehyde] (H-[dNMePhg]-Pro-Arg-aldehyde) | 899 ng/mL | >909 ng/mL | EC (2-fold clotting time) (bovine thrombin [4]; [9]): 0.067 µg/mL

The remaining lines, values behind:

Compound | pKd (thrombin; [6]) | EC (2-fold clotting time) (bovine thrombin [3]; [8]) | Prothrombin Time: concentration of test compounds required to prolong coagulation by 2-fold (plasma [1]) | APTT: concentration of test compounds required to prolong coagulation by 2-fold (plasma [2]) | other results
CC(C)(C)OC(=O)N1CCc2ccccc2C1C(=O)N1CCC[C@H]1C(=O)N[C@H](C=O)CCCNC(=N)N (mixture of isomers) [Boc-1,2,3,4-tetrahydroisoquinolin-1-ylcarbonyl-Pro-Arg-H] | 6.58 |  |  |  | 
CC(C)(C)OC(=O)NC(C(=O)N1CCC[C@H]1C(=O)N[C@H](C=O)CCCNC(=N)N)c1ccc(Cl)c(Cl)c1 (mixture of isomers) [N-Boc-DL-(3,4-dichloro)phenylglycyl] | 7.60 |  |  |  | 
CC[C@@H](C(=O)N1CCC[C@H]1C(=O)N[C@H](C=O)CCCNC(=N)N)c1ccccc1 [(R)-α-Ethylphenylacetyl] |  |  | 700 ng/mL | 2275 ng/mL | Kd (thrombin; [7]): 133 nM
CO[C@@H](C(=O)N1CCC[C@H]1C(=O)N[C@H](C=O)CCCNC(=N)N)c1ccccc1 [(R)-α-Methoxyphenylacetyl] |  |  | >909 ng/mL | >909 ng/mL | Kd (thrombin; [7]): 238 nM
C[C@@H](C(=O)N1CCC[C@H]1C(=O)N[C@H](C=O)CCCNC(=N)N)c1ccccc1 [(R)-α-Methylphenylacetyl] |  |  |  |  | Kd (thrombin; [7]): 90.9 nM
C[C@H](C(=O)N1CCC[C@H]1C(=O)N[C@H](C=O)CCCNC(=N)N)c1ccccc1 [(S)-α-Methylphenylacetyl] |  |  |  |  | Kd (thrombin; [7]): 5000 nM
CC(C)(C)OC(=O)N[C@@H](C(=O)N1CCC[C@H]1C(=O)N[C@H](C=O)CCCNC(=N)N)c1ccc2ccccc2c1 [N-Boc-D-2-naphthylglycyl, N-Boc-D-2-naphthylglycyl-Pro-Arg-H diacetate] |  |  | 1200 ng/mL | 1200 ng/mL | pKd (thrombin): 7.35; Thrombin Time: concentration of test compounds required to prolong coagulation by 2-fold (bovine thrombin [3]; [8]): 230 ng/mL; Buffer (pH 7.5) Thrombin Time: concentration of test compounds required to prolong coagulation by 2-fold (bovine thrombin [4]; buffer pH 7.5, fibrinogen instead of plasma): 142 ng/ml
CC(C)(C)OC(=O)N[C@@H](C(=O)N1CCC[C@H]1C(=O)N[C@H](C=O)CCCNC(=N)N)c1cccs1 [N-Boc-D-2-thienyiglycyl] | 7.15 |  |  |  | 
CC(C)(C)OC(=O)N[C@@H](C(=O)N1CCC[C@H]1C(=O)N[C@H](C=O)CCCN=C(N)N)c1ccc(O)cc1 [N-Boc-D-(4-hydroxy)phenylglycyl, N-Boc-D-(4-hydroxyphenylglycyl)-Pro-Arg-H diacetate] (Boc-[dHpg]-Pro-Arg-aldehyde) | 8.06 |  |  |  | 
COc1ccc([C@@H](NC(=O)OC(C)(C)C)C(=O)N2CCC[C@H]2C(=O)N[C@H](C=O)CCCNC(=N)N)cc1 [N-Boc-D-(4-methoxy)phenylglycyl] | 7.88 | 0.08 µg/mL |  | 640 ng/mL | 
COc1ccc2cc([C@@H](NC(=O)OC(C)(C)C)C(=O)N3CCC[C@H]3C(=O)N[C@H](C=O)CCCNC(=N)N)ccc2c1 [N-Boc-D-(6-methoxy)-2-naphthylglycyl] | 6.79 | 0.46 µg/mL | 35489 ng/mL | 2239 ng/mL | EC (2-fold clotting time) (bovine thrombin [4]; [9]): 0.466 µg/mL
CC(C)(C)OC(=O)N[C@@H](C(=O)N1CCC[C@H]1C(=O)N[C@H](C=O)CCCN=C(N)N)C1CCCCC1 [N-Boc-D-cyclohexylglycyl] (Boc-[dChg]-Pro-Arg-aldehyde) | 8.08 |  |  |  | 
CC(C)(C)OC(=O)N[C@@H](C(=O)N1CCC[C@H]1C(=O)N[C@H](C=O)CCCNC(=N)N)C1CCCCC1 [N-Boc-D-cyclohexylglycyl] (Boc-[dChg]-Pro-Arg-aldehyde) |  | 0.079 µg/mL | 522 ng/mL | 748 ng/mL | EC (2-fold clotting time) (bovine thrombin [4]; [9]): 0.06 µg/mL; ED50 (infusion dose required to maintain blood flow for 50 min) [5]: 11.3 mg/kg/h
CC(C)(C)OC(=O)N[C@@H](C(=O)N1CCC[C@H]1C(=O)N[C@H](C=O)CCCN=C(N)N)c1ccccc1 [N-Boc-D-phenylglycyl (sulfate salt), N-Boc-D-Phenylglycyl-L-Prolyl-L-Arginine aldehyde (Boc-D-Phg-Pro-Arg-H) hemisulfate] (Boc-[dPhg]-Pro-Arg-aldehyde) | 8.03 |  |  |  | 
CC(C)(C)OC(=O)N[C@@H](C(=O)N1CCC[C@H]1C(=O)N[C@H](C=O)CCCN=C(N)N)c1ccccc1 [N-Boc-D-phenylglycyl, N-(t-Butyloxycarbonyl)-D-phenylglycyl-L-Prolyl-L-Arginine aldehyde (Boc-D-Phg-Pro-Arg-H) diacetate salt] (Boc-[dPhg]-Pro-Arg-aldehyde) | 7.94 and 7.86 |  |  |  | 
CC(C)(C)OC(=O)N[C@@H](C(=O)N1CCC[C@H]1C(=O)N[C@H](C=O)CCCNC(=N)N)c1ccccc1 [N-Boc-D-phenylglycyl, N-(t-Butyloxycarbonyl)-D-phenylglycyl-L-Prolyl-L-Arginine aldehyde (Boc-D-Phg-Pro-Arg-H) diacetate salt] (Boc-[dPhg]-Pro-Arg-aldehyde) |  |  | 667 ng/mL | 1169 ng/mL | EC (2-fold clotting time) (bovine thrombin [3]): 0.11 µg/mL; EC (2-fold clotting time) (bovine thrombin [4]; pH 7.5, read-out: Buffer (pH 7.5) Thrombin Time: concentration of test compounds required to prolong coagulation by 2-fold): 0.118 µg/mL; ED50 (infusion dose required to maintain blood flow for 50 min) [5]: 2.9 mg/kg/h
